US8735409B2, “Quinazoline derivatives” (priority 2009, dated 2014)

Experiment: Stability in Human Liver Microsomes
Format: in vitro ADME
Details: pooled human liver microsomes 0.5 mg/mL protein, 1 mM NADPH, 37° C., N=1; for half-life: both sexes
Protocol: The liver microsomes stability of compounds of Examples 1-4 was compared with that of TOVOK, and the compound of Example 5 with CUDC-101.
The metabolic stability of compounds of the invention was tested using pooled liver microsomes prepared from mixed-gender humans, with 1 mM NADPH. The samples were analyzed using an LTQ-Orbitrap XL mass spectrometer. HRMS was used to determine the peak area response ratio (peak area corresponding to test compound or control divided by that of an analytical internal standard) without running a standard curve. HRMS scan was performed in an appropriate m/z range in order to detect all plausible metabolites
The assay was run with a single incubation (N=1). Incubated test compounds at 37° C. in buffer containing 0.5 mg/mL microsomal protein. Initiated the reaction by adding cofactors, sampling at 0, 10, 20, 30, and 60 minutes, Incubated positive control (5 μM testosterone) in parallel and sampling at 0, 10, and 30 minutes.
The control compound testosterone was run in parallel to verify the enzymatic activity of the microsomes. After the final time point, fluorimetry was used to confirm the addition of NADPH to the reaction mixture. T1/2 of control met the internal acceptance criteria.
• Liquid Chromatography • Column: Thermo BDS Hypersil C18 30×2.0 mm, 3 μm, with guard column • M.P. Buffer: 25 mM ammonium formate buffer, pH 3.5 • Aqueous Reservoir (A): 90% water, 10% buffer • Organic Reservoir (B): 90% acetonitrile, 10% buffer • Flow Rate: 300 μL/minute • Gradient Program:
• Total Run Time: 3.5 minutes • Autosampler: 10 μL Injection Volume • Autosampler Wash: water/methanol/2-propanol: 1/1/1; with 0.2% formic acid • Mass Spectrometer • Instrument: PE SCIEX API 3000 • Interface: Turbo Ionspray • Mode: Multiple Reaction Monitoring • Method: 3.5 minute duration

Structure (SMILES)	half-life	Percentage remaining 0 min	Percentage remaining 10 min	Percentage remaining 20 min	Percentage remaining 30 min	Percentage remaining 60 min	Half life
C#Cc1cccc(Nc2ncnc3cc(OC)c(OCCCCCCC(=O)NO)cc23)c1 [CUDC-101, reference compound]	0.333 h	100%	74%	48%	35%	14%	
[2H]C([2H])([2H])N(C/C=C/C(=O)Nc1cc2c(Nc3ccc(F)c(Cl)c3)ncnc2cc1O[C@H]1CCOC1)C([2H])([2H])[2H] [Example 1, (S,E)-N-(4-(3-chloro-4-fluorophenylamino)-7-(tetrahydrofuran-3-yloxy)quinazolin-6-yl)-4-(D6-dimethylamino)but-2-enamide]		100%	97%	90%	85%	75%	>1 h
[2H]C([2H])([2H])N(C/C=C/C(=O)Nc1cc2c(Nc3cccc(C#C)c3)ncnc2cc1O[C@H]1CCOC1)C([2H])([2H])[2H] [Example 2, (S,E)-4-(D6-dimethylamino)-N-(4-(3-ethynylphenylamino)-7-(tetrahydrofuran-3-yloxy)quinazolin-6-yl)but-2-enamide]		100%	95%	87%	80%	67%	>1 h
[2H]C1(Oc2cc3ncnc(Nc4ccc(F)c(Cl)c4)c3cc2NC(=O)/C=C/CN(C)C)CCOC1 (stereo not drawn) [Example 3, (E)-N-(4-(3-chloro-4-fluorophenylamino)-7-((3-D)-tetrahydrofuran-3-yloxy)quinazolin-6-yl)-4-(dimethylamino)but-2-enamide]		100%	97%	89%	84%	73%	>1 h
[2H]C1(Oc2cc3ncnc(Nc4cccc(C#C)c4)c3cc2NC(=O)/C=C/CN(C)C)CCOC1 [Example 4, (E)-4-(dimethylamino)-N-(4-(3-ethynylphenylamino)-7-(3-D-tetrahydrofuran-3-yloxy)quinazolin-6-yl)but-2-enamide]		100%	94%	87%	79%	70%	>1 h
[2H]C([2H])([2H])Oc1cc2ncnc(Nc3cccc(C#C)c3)c2cc1OCCCCCCC(=O)NO [Example 5, 7-(4-(3-ethynylphenylamino)-7-(D3-methoxy)quinazolin-6-yloxy)-N-hydroxyheptanamide]	0.467 h	100%	85%	68%	48%	25%	
CN(C)C/C=C/C(=O)Nc1cc2c(Nc3ccc(F)c(Cl)c3)ncnc2cc1O[C@H]1CCOC1 [TOVOK, reference compound]	> 1 h	100%	95%	85%	75%	60%	
